Experimental data: patent publication US6706725B1, “Vitamin D analogues” (Galderma Research & Development, S.N.C., priority 1999, dated 2004)

Target: T1, human VDR receptor (Homo sapiens, UniProt P11473)
T1 construct: expressed in transfected cells; host or cells: HeLa
T1 sequence (P11473 1-427): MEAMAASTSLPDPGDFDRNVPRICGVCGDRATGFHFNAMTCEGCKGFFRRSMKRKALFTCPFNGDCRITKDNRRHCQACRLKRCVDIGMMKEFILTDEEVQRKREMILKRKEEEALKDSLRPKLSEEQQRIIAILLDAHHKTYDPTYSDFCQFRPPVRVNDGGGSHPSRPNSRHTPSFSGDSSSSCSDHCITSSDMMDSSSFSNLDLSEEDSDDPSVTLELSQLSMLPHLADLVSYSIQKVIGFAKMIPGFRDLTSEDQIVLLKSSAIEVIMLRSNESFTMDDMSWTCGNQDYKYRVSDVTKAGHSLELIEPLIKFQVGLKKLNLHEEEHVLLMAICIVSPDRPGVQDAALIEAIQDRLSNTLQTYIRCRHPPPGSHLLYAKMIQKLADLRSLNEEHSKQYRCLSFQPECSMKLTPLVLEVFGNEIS
Experiment: VDR agonist activity by co-transfection in HeLa cells (human VDR expression vector + p240Hase-CAT reporter, CAT ELISA)
Type: cell-based
Details: HeLa cell line co-transfected with human VDR and rat 24-hydroxylase promoter-CAT reporter; treatment for 18 hours; read-out: AC 50 (dose required to achieve 50% of the maximum activity of the product)
Method: By way of example, the VDR agonist activity can be tested on the HeLa cell line by co-transfection with an expression vector for the human VDR receptor and the reporter plasmid p240Hase-CAT which contains the region −1399 to +76 of rat 24-hydroxylase promoter, cloned upstream of the frame encoding the chloramphenicol-acetyl-transferase (CAT) gene. 18 hours after co-transfection, the test product is added to the medium. After treatment for 18 hours, assay of the CAT activity in the cell lysates is carried out by an ELISA test. The results are expressed as percentages of the effect normally observed with 10^−7M calcitriol.
The agonist activity can also be characterized in the co-transfection system, by determining the dose required to reach 50% of the maximum activity of the product (AC50).
The VDR agonist activity was tested on the HeLa cell line, by co-transfection of an expression vector of the human VDR receptor and of the reporter plasmid p240Hase-CAT which contains the region −1399 to +76 of the rat 24-hydroxylase promoter, cloned upstream of the coding frame of the chloramphenicol-acetyl-transferase (CAT) gene. 18 hours after co-transfection, the test product is added to the medium. After treatment for 18 hours, the CAT activity of the cell lysates is assayed by an ELISA test. The results are expressed as a percentage of the effect normally observed with 10^−7 M of calcitriol.
The agonist activity was characterized in this co-transfection system by determining the dose required to achieve 50% of the maximum activity of the product (AC50).

AC50 | Compound
0.029 µM | CC/C(=C\CCC(O)(CC)CC)c1ccc(CCc2ccc(CO)c(CO)c2)s1 [Example 8, (E)-7-{5-[2-(3,4-bis-Hydroxymethyl-phenyl)ethyl]-2-thienyl}-3-ethylnon-6-en-3-ol]
0.023 µM | CC/C(=C\CCC(O)(CC)CC)c1cc(CCc2ccc(CO)c(CO)c2)cs1 [Example 10, (E)-7-[4-[2-(3,4-bis-Hydroxymethyl-phenyl)ethyl]-2-thienyl)-3-ethylnon-6-en-3-ol]
0.655 µM | CC/C(=C\CCC(O)(CC)CC)c1csc(COc2ccc(CO)c(CO)c2)c1 [Example 12, (E)-7-[5-(3,4-bis-Hydroxymethyl-phenoxymethyl)-3-thienyl]-3-ethylnon-6-en-3-ol]
0.078 µM | CC/C(=C\C=C\C(O)(C(F)(F)F)C(F)(F)F)c1ccc(COc2ccc(CO)c(CO)c2)s1 [Example 13, (3E,5E)-6-[5-(3,4-bis-Hydroxymethyl-phenoxymethyl)-2-thienyl]-1,1,1-trifluoro-2-trifluoromethylocta-3,5-dien-2-ol]

Continued, molecule first:

Compound | AC50
CCC(O)(CC)CC/C=C(\C)c1ccc(COc2ccc(CO)c(CO)c2)s1 [Example 1, (E)-7-[5-(3,4-bis-Hydroxymethyl-phenoxymethyl)-2-thienyl]-3-ethyloct-6-en-3-ol] | 0.192 µM
CCC(O)(CC)CC/C=C(\C)c1cc(COc2ccc(CO)c(CO)c2)cs1 [Example 2, (E)-7-[4-(3,4-bis-Hydroxymethyl-phenoxymethyl)-2-thienyl]-3-ethyloct-6-en-3-ol] | 0.267 µM
CC/C(=C\CCC(O)(CC)CC)c1cccc(COc2ccc(CO)c(CO)c2)n1 [Example 4, (E)-7-[6-(3,4-bis-Hydroxymethyl-phenoxymethyl)-2-pyridyl]-3-ethylnon-6-en-3-ol] | 0.294 µM
CC/C(=C\CCC(O)(CC)CC)c1ccc(COc2ccc(CO)c(CO)c2)s1 [Example 6, (E)-7-[5-(3,4-bis-Hydroxymethyl-phenoxymethyl)-2-thienyl]-3-ethylnon-6-en-3-ol] | 0.061 µM
CC/C(=C\C=C\C(O)(CC)CC)c1ccc(COc2ccc(CO)c(CO)c2)s1 [Example 7, (4E,6E)-7-[5-(3,4-bis-Hydroxymethyl-phenoxymethyl)-2-thienyl]-3-ethylnona-4,6-dien-3-ol] | 0.017 µM
